Entries after “also recorded” stand apart in the source; their conditions may differ. Counter-ions that a name gives are not always drawn. Marks after values point to notes of the source that are not given here.
Key:
Type in all cases: cell-based
[1] = tested on: combined bacterial test inoculum: Acinetobacter calcoaceticus, Escherichia coli, Pseudomonas aeruginosa, Enterobacter cloacae; assay: Bacterial challenge test (ASTM D2574-97, modified) in standard water based interior paint; parameters: key to Streak plate rank, 1st inoculation 24 h / Streak plate rank, 1st inoculation 72 h / Streak plate rank, 2nd inoculation 72 h / Streak plate rank, 3rd inoculation 24 h: 0 = no growth; 1 = 1-5 Colony Forming Unit (cfu); 2 = 6-15 cfu; 3 = 16-30 cfu; 4 = 31-45 cfu; 5 = greater than 45 cfu; 5c = Confluent Growth; conditions: for Dilution plate count, 3rd inoculation 72 h / Streak plate rank, 3rd inoculation 24 h: inoculum 2.50%; for Streak plate rank, 2nd inoculation 72 h: inoculum 5%; for Streak plate rank, 1st inoculation 24 h / Streak plate rank, 1st inoculation 72 h: inoculum 10%; for effect of guanidine on bactericidal activity of 4-isothiazolin-3-ones (in words): in combination with BIT and BBIT, Tables 3 and 5
Method: (§1) The following bacterial and fungal challenge tests were performed to ascertain whether low concentrations of 4-isothiazolin-3-one biocidal active compounds, pyrithione, coumarin or guanidine adjuvant are sufficient to prevent microbial contamination of final products when deliberately inoculated with spoilage microbes.
(§2) The tests were performed according to ASTM standard D2574-97 (Standard Test Method for Resistance of Emulsion Paints in the Container to Attack by Microorganisms, ASTM International, West Conshohocken, Pa.), with higher inoculation volumes and frequency. A standard water based interior paint was used as the test substrate. Sample sizes of 20 g test substrate were used and the test samples were prepared in a sterile 30 mL square Nalgene bottle.
The bacteria were grown on pH 5, 7, or 9 Trypticase Soy Agar (TSA) lawns. The bacteria were grown individually on TSA and harvested by using sterile buffered water. The bacterial lawns were washed off with 30 mL of sterile water and an equal volume of each individual cell suspension was withdrawn from each serum bottle to make a combined cell suspension. Combined bacterial suspension were about 10^7 cfu/mL, which provides about 10^6 cfu/mL in the sample.
(§3) The following microorganisms were used for inoculation of the tested samples:
(§4) For the bacterial challenge testing, each sample was inoculated with a combined bacterial test inoculum volume equivalent to 10% of the total initial sample volume for the initial inoculation, 5% of the total initial sample volume for the second inoculation and 2.5% of the total initial sample volume for the third inoculation. Inoculum volumes for the fungal challenge tests were 2%, 1% and 0.5% of the total initial sample volume, respectively. Samples were inoculated every 96 h.
(§5) Concentrations of biocidal active compounds and adjuvants refer to the final concentration in the test samples prior to the first inoculation.
(§6) The efficacy of the added agent in each sample was monitored by means of a streak plate test after 24 hours (all inoculations) and 72 hours of inoculation (first and second inoculation). At 72 hours of the third inoculation performed, a dilution plate count was performed in order to obtain a quantitative measurement of contamination (cfu/mL). A count of less than 10 colony forming units per mL ([…]) is considered to show no measurable contamination. For the streak plate tests, bacterial samples were streaked on Tryptic Soy Agar (TSA) and incubated for 48 hours at 30° C. before reading. Fungal samples were streaked on Potato Dextrose Agar (PDA) and incubated for 5 days at 25° C. before reading.
(§7) The streak plates were ranked from 0-5c according to the degree of microbial growth:
(§8) The challenge tests were performed as described above.

[2] = tested on: fungal test inoculum: Aspergillus niger, Penicillium funiculosum, Candida albicans; assay: Fungal challenge test (ASTM D2574-97, modified) in standard water based interior paint; parameters: key to Streak plate rank, 2nd inoculation 72 h / Streak plate rank, 1st inoculation 72 h / Streak plate rank, 1st inoculation 24 h / Streak plate rank, 2nd inoculation 24 h / Streak plate rank, 3rd inoculation 24 h: 0 = no growth; 1 = 1-5 Colony Forming Unit (cfu); 2 = 6-15 cfu; 3 = 16-30 cfu; 4 = 31-45 cfu; 5 = greater than 45 cfu; 5c = Confluent Growth; conditions: for Dilution plate count, 3rd inoculation 72 h / Streak plate rank, 3rd inoculation 24 h: inoculum 0.50%; for Streak plate rank, 1st inoculation 24 h / Streak plate rank, 1st inoculation 72 h: inoculum 2%; for effect of guanidine on fungicidal activity of 4-isothiazolin-3-ones (in words): in combination with BIT and BBIT, Tables 4 and 6
Method: as §1, §2
Fungal lawns were grown on Potato Dextrose Agar (PDA) or Sabouraud Dextrose Agar (SAB). Individual fungal spore suspensions were harvested by adding 10 mL of sterile 0.05% Triton X to fungal lawns. The lawns were then gently agitated by rubbing a sterile swab on the lawn, being careful not to puncture the agar. The liquid was then aseptically transferred to a sterile bottle containing sterile glass beads. The top of the bottle was closed and the bottle shaken vigorously to break up any chunks in the suspension. The shaken spore suspension was decanted through sterile fibers into another sterile bottle. The decanted spore suspension was counted using a hemocytometer. Once the spore counts were determined, each suspension was diluted in order to obtain 10^6 spore/mL. Each diluted fungal suspension was poured into a sterile container.
as §3
as §4, with “Inoculum volumes for the fungal challenge tests were 2%, 1% and 0.5% of the total initial sample volume, respectively.” left out
as §5, §6, §7, §8

[3] = tested on: bacterial test inoculum (Acinetobacter calcoaceticus, Escherichia coli, Pseudomonas aeruginosa, Enterobacter cloacae); assay: Quick kill testing in pre-contaminated standard interior paint (dilution-plate counts)
Method: An additional test was performed to analyze how quickly the tested biocidal compositions will recover a sample from microbial spoilage. For each sample, 20 g of a pre-contaminated standard interior paint formulation serving as a test substrate was weighed into a sterile container. All samples were contaminated with the bacterial test inoculum described above (10% of the of the total initial sample volume).
A dilution-plate count was performed on the untreated sample (0 hour time point) and a biocidal composition added aseptically to each sample. Subsequent to this treatment, further dilution-plate counts were performed at fixed time intervals (time points are given in hours) on each sample, including an untreated negative control. All samples were incubated at 30° C.±2° C.
Concentrations in ppm refer to final concentrations of the biocidal compositions in the test samples. The relative amounts of active compounds and adjuvant in the tested biocidal compositions were as indicated below: […]

SMILES: [Na+].[O-][n+]1ccccc1[S-] [NaPT, sodium pyrithione]
- Dilution plate count, 3rd inoculation 72 h ([1]; 80 ppm): 2.2 × 10^7 cfu/mL
- Streak plate rank, 3rd inoculation 24 h ([1]; 80 ppm): 5c
- Streak plate rank, 2nd inoculation 72 h ([1]; 80 ppm): 5c
- Streak plate rank, 1st inoculation 24 h ([1]; 80 ppm): 5c
- Streak plate rank, 1st inoculation 72 h ([1]; 80 ppm): 5c
- Dilution plate count, 3rd inoculation 72 h ([2]; 80 ppm): <10 cfu/mL
- Streak plate rank, 3rd inoculation 24 h ([2]; 80 ppm): 0
- Streak plate rank, 2nd inoculation 24 h ([2]; 80 ppm, inoculum 1%): 0
- Streak plate rank, 2nd inoculation 72 h ([2]; 80 ppm, inoculum 1%): 0
- Streak plate rank, 1st inoculation 24 h ([2]; 80 ppm): 0
- Streak plate rank, 1st inoculation 72 h ([2]; 80 ppm): 0

SMILES: CN(C)C(=N)N(C)C [TMG, 1,1,3,3-tetramethylguanidine]
- Dilution plate count, 3rd inoculation 72 h ([1]; 750 ppm): 1.7 × 10^5 cfu/mL
- Streak plate rank, 3rd inoculation 24 h ([1]; 750 ppm): 5c
- Streak plate rank, 2nd inoculation 72 h ([1]; 750 ppm): 5c
- Streak plate rank, 1st inoculation 24 h ([1]; 750 ppm): 5 (5 = greater than 45 cfu)
- Streak plate rank, 1st inoculation 72 h ([1]; 750 ppm): 5c
- Dilution plate count, 3rd inoculation 72 h ([1]; 1000 ppm): 2.1 × 10^6 cfu/mL
- Streak plate rank, 3rd inoculation 24 h ([1]; 1000 ppm): 5c
- Streak plate rank, 2nd inoculation 72 h ([1]; 1000 ppm): 5c
- Streak plate rank, 1st inoculation 24 h ([1]; 1000 ppm): 5 (5 = greater than 45 cfu)
- Streak plate rank, 1st inoculation 72 h ([1]; 1000 ppm): 5 (5 = greater than 45 cfu)
- Dilution plate count, 3rd inoculation 72 h ([1]; 1250 ppm): 6.6 × 10^6 cfu/mL
- Streak plate rank, 3rd inoculation 24 h ([1]; 1250 ppm): 5c
- Streak plate rank, 2nd inoculation 72 h ([1]; 1250 ppm): 5c
- Streak plate rank, 1st inoculation 24 h ([1]; 1250 ppm): 0
- Streak plate rank, 1st inoculation 72 h ([1]; 1250 ppm): 0
- Dilution plate count, 3rd inoculation 72 h ([1]; 1500 ppm): <10 cfu/mL
- Streak plate rank, 3rd inoculation 24 h ([1]; 1500 ppm): 3 (3 = 16-30 cfu)
- Streak plate rank, 2nd inoculation 72 h ([1]; 1500 ppm): 0
- Streak plate rank, 1st inoculation 24 h ([1]; 1500 ppm): 0
- Streak plate rank, 1st inoculation 72 h ([1]; 1500 ppm): 0
- effect of guanidine on bactericidal activity of 4-isothiazolin-3-ones (in words) [1]: significantly improved
- Dilution plate count, 3rd inoculation 72 h ([2]; 750 ppm): <10 cfu/mL
- Streak plate rank, 3rd inoculation 24 h ([2]; 750 ppm): 3 (3 = 16-30 cfu)
- Streak plate rank, 1st inoculation 24 h ([2]; 750 ppm): 4 (4 = 31-45 cfu)
- Streak plate rank, 1st inoculation 72 h ([2]; 750 ppm): 0
- Streak plate rank, 2nd inoculation 72 h ([2]; 750 ppm, inoculum added was 2%): 1** (1 = 1-5 Colony Forming Unit (cfu))
- Dilution plate count, 3rd inoculation 72 h ([2]; 1000 ppm): <10 cfu/mL
- Streak plate rank, 3rd inoculation 24 h ([2]; 1000 ppm): 3 (3 = 16-30 cfu)
- Streak plate rank, 1st inoculation 24 h ([2]; 1000 ppm): 4 (4 = 31-45 cfu)
- Streak plate rank, 1st inoculation 72 h ([2]; 1000 ppm): 0
- Streak plate rank, 2nd inoculation 72 h ([2]; 1000 ppm, inoculum added was 2%): 0**
- Dilution plate count, 3rd inoculation 72 h ([2]; 1250 ppm): <10 cfu/mL
- Streak plate rank, 3rd inoculation 24 h ([2]; 1250 ppm): 3 (3 = 16-30 cfu)
- Streak plate rank, 1st inoculation 24 h ([2]; 1250 ppm): 2 (2 = 6-15 cfu)
- Streak plate rank, 1st inoculation 72 h ([2]; 1250 ppm): 0
- Streak plate rank, 2nd inoculation 72 h ([2]; 1250 ppm, inoculum added was 2%): 0**
- Dilution plate count, 3rd inoculation 72 h ([2]; 1500 ppm): <10 cfu/mL
- Streak plate rank, 3rd inoculation 24 h ([2]; 1500 ppm): 3 (3 = 16-30 cfu)
- Streak plate rank, 1st inoculation 24 h ([2]; 1500 ppm): 2 (2 = 6-15 cfu)
- Streak plate rank, 1st inoculation 72 h ([2]; 1500 ppm): 0
- Streak plate rank, 2nd inoculation 72 h ([2]; 1500 ppm, inoculum added was 2%): 0**
- effect of guanidine on fungicidal activity of 4-isothiazolin-3-ones (in words) [2]: enhancing effect; also recorded: significantly improved
- Dilution-plate count T4 ([3]; Table 9, 940 ppm, 4 hours after treatment, 30° C.): 1.19 × 10^7
- Dilution-plate count T8 ([3]; Table 9, 940 ppm, 8 hours after treatment, 30° C.): 1.02 × 10^7
- Dilution-plate count T24 ([3]; Table 9, 940 ppm, 24 hours after treatment, 30° C.): 4.0 × 10^6
- quick kill performance (in words) ([3]; Tables 8 and 9): markedly accelerated the recovery

SMILES: CNC(=N)N [methylguanidine HCl, Methylguanidine HCl]
- effect of guanidine on bactericidal activity of 4-isothiazolin-3-ones (in words) [1]: not achieved
- effect of guanidine on fungicidal activity of 4-isothiazolin-3-ones (in words) [2]: not achieved
